From patent US9458181B2, “Cathepsin cysteine protease inhibitors” (Merck Sharp & Dohme Corp., priority 2013, dated 2016)

Tests used:
[1] = target: human cathepsin K (UniProt P43236); assay: Cathepsin K Assay (hrbCat K); assay type: biochemical; settings: human cathepsin K 0.4 nM, Z-Leu-Arg-AMC 8 μM, pH 5.5, 15 min preincubation; read-out: hrbCat K IP
Method in brief: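 Human cathepsin K (0.4 nM) in pH 5.5 MES buffer with EDTA, DTT and 10% DMSO was preincubated 15 min at room temperature with compound from a ⅓ dilution series (500-0.025 μM DMSO stocks). Z-Leu-Arg-AMC (8 μM) was then added, and AMC release was followed fluorometrically (Ex 360/Em 460 nm) for 30 min; inhibition was fitted to a dose-response model.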

[2] = target: T1, human cathepsin F (Homo sapiens, UniProt Q9UBX1); assay: Cathepsin F assay (hCat F); assay type: biochemical; settings: human cathepsin F 10 nM, Z-Phe-Arg-AMC 8 μM, pH 5.5, 15 min preincubation; read-out: hCat F IP
T1 sequence (Q9UBX1 271-484): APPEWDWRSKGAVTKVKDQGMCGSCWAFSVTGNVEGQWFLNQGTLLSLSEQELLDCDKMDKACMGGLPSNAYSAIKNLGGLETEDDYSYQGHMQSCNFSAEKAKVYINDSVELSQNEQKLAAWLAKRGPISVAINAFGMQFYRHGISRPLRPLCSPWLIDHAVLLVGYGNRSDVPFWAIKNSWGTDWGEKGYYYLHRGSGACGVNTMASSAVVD
Method in brief: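 Human cathepsin F (10 nM) in 50 mM MES pH 5.5, 2.5 mM EDTA, 2.5 mM DTT, 10% DMSO was preincubated 15 min at RT with compounds from a ⅓ DMSO dilution series (500–0.025 μM stocks). Z-Phe-Arg-AMC was added (8 μM as added), and AMC release was read by fluorescence (360/460 nm) for 20 min. Percent inhibition was fitted to a dose-response model.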

| IC50 [1] | IC50 [2] | SMILES |
| --- | --- | --- |
| 0.61 nM | 1390 nM | N#CC1(NC(=O)[C@@H]2C[C@@H](F)CC[C@H]2c2oc(-c3ccc(F)cc3)nc2-c2ccc(N3CCS(=O)(=O)CC3)cc2)CC1 [Example 31, (1R,2R,5S)-N-(1-cyanocyclopropyl)-2-(4-(4-(1,1-dioxidothiomorpholino)phenyl)-2-(4-fluorophenyl)oxazol-5-yl)-5-fluorocyclohexane-carboxamide] |
| 3.12 nM | 2490 nM | N#CC1(NC(=O)[C@@H]2CCCC[C@H]2c2oc(-c3ccc(F)cn3)nc2-c2ccc(N3CCS(=O)(=O)CC3)cc2)CC1 [Example 32, (1R,2R)-N-(1-cyanocyclopropyl)-2-(4 (4-(1,1-dioxidothiomorpholino)phenyl)-2-(5-fluoropyridin-2-yl)oxazol-5-yl)cyclohexanecarboxamide] |
| 1.99 nM | 1320 nM | N#CC1(NC(=O)[C@@H]2CCCC[C@H]2c2oc(-c3cncc(F)c3)nc2-c2ccc(N3CCS(=O)(=O)CC3)cc2)CC1 [Example 33, (1R,2R)-N-(1-cyanocyclopropyl)-2-(4-(4-(1,1-dioxidothiomorpholino)phenyl)-2-(5-fluoropyridin-3-yl)oxazol-5-yl)cyclohexanecarboxamide] |
| 0.85 nM | 442 nM | N#CC1(NC(=O)[C@@H]2CCCC[C@H]2c2oc(-c3cc(F)cc(F)c3)nc2-c2ccc(N3CCS(=O)(=O)CC3)cc2)CC1 [Example 34, (1R,2R)-N-(1-cyanocyclopropyl)-2-(2-(3,5-difluorophenyl)-4-(4-(1,1-dioxidothiomorpholino)phenyl)oxazol-5-yl) cyclohexanecarboxamide] |
| 1.11 nM | 993 nM | N#CC1(NC(=O)[C@@H]2CCCC[C@H]2c2oc(-c3cncnc3)nc2-c2ccc(N3CCS(=O)(=O)CC3)cc2)CC1 [Example 35, (1R,2R)-N-(1-cyanocyclopropyl)-2-(4-(4-(1,1-dioxidothiomorpholino)phenyl)-2-(pyrimidin-5-yl)oxazol-5-yl) cyclohexanecarboxamide] |
| 0.94 nM | 382 nM | N#CC1(NC(=O)[C@@H]2CCCC[C@H]2c2oc(-c3ccc(F)c(Cl)c3)nc2-c2ccc(N3CCS(=O)(=O)CC3)cc2)CC1 [Example 36, (1R,2R)-2-(2-(3-chloro-4-fluorophenyl)-4-(4-(1,1-dioxidothiomorpholino)phenyl)oxazol-5-yl)-N-(1-cyanocyclopropyl) cyclohexanecarboxamide] |
| 0.72 nM | 353 nM | N#CC1(NC(=O)[C@@H]2CCCC[C@H]2c2oc(-c3ccc(F)cc3Cl)nc2-c2ccc(N3CCS(=O)(=O)CC3)cc2)CC1 [Example 37, (1R,2R)-2-(2-(2-chloro-4-fluorophenyl)-4-(4-(1,1-dioxidothiomorpholino)phenyl)oxazol-5-yl)-N-(1-cyanocyclopropyl) cyclohexanecarboxamide] |
| 1.28 nM | 308 nM | N#CC1(NC(=O)[C@@H]2CCCC[C@H]2c2oc(-c3ccc(Cl)cc3)nc2-c2ccc(N3CCS(=O)(=O)CC3)cc2)CC1 [Example 38, (1R,2R)-2-(2-(4-chlorophenyl)-4-(4-(1,1-dioxidothiomorpholino)phenyl)oxazol-5-yl)-N-(1-cyanocyclopropyl) cyclohexanecarboxamide] |
| 2.11 nM | 702 nM | CS(=O)(=O)C1CN(c2ccc(-c3nc(-c4ccc(F)cc4F)oc3[C@@H]3CCCC[C@H]3C(=O)NC3(C#N)CC3)cc2)C1 [Example 39, (1R,2R)-N-(1-cyanocyclopropyl)-2-(2-(2,4-difluorophenyl)-4-(4-(3-(methylsulfonyl)azetidin-1-yl)phenyl)oxazol-5-yl) cyclohexanecarboxamide] |
| 1.42 nM | 2220 nM | N#CC1(NC(=O)[C@@H]2CCCC[C@H]2c2oc(-c3ccc(C(F)(F)F)nc3)nc2-c2ccc(N3CCS(=O)(=O)CC3)cc2)CC1 [Example 40, (1R,2R)-N-(1-cyanocyclopropyl)-2-(4-(4-(1,1 dioxidothiomorpholino)phenyl)-2-(6-(trifluoromethyl)pyridin-3-yl)oxazol-5-yl)cyclohexane carboxamide] |
| 1.41 nM | 2190 nM | N#CC1(NC(=O)[C@@H]2C[C@@H](F)CC[C@H]2c2oc(-c3ccc(F)cc3F)nc2-c2ccc(N3CCS(=O)(=O)CC3)cc2)CC1 [Example 41, (1R,2R,5S)-N-(1-cyanocyclopropyl)-2-(2-(2,4-difluorophenyl)-4-(4-(1,1-dioxidothiomorpholino)phenyl)oxazol-5-yl)-5-fluorocyclohexane-carboxamide] |
| 2.41 nM | 1860 nM | N#CC1(NC(=O)[C@@H]2C[C@@H](F)CC[C@H]2c2oc(C(F)(F)C(F)(F)F)nc2-c2ccc(N3CCS(=O)(=O)CC3)cc2)CC1 [Example 42, (1R,2R,5S)-N-(1-cyanocyclopropyl)-2-(4-(4-(1,1-dioxidothiomorpholino)phenyl)-2-(perfluoroethyl)oxazol-5-yl)-5-fluorocyclohexane-carboxamide] |
| 15.7 nM | 1650 nM | CC(C)(C#N)NC(=O)[C@@H]1CCCC[C@H]1c1oc(-c2ccc(F)cc2F)nc1-c1ccc(N2CCS(=O)(=O)CC2)cc1 [Example 43, (1R,2R)-N-(2-cyanopropan-2-yl)-2-(2-(2,4-difluorophenyl)-4-(4-(1,1-dioxidothiomorpholino)phenyl)oxazol-5-yl)cyclohexanecarboxamide] |
| 0.67 nM | 229 nM | N#CCNC(=O)[C@@H]1CCCC[C@H]1c1oc(-c2ccc(F)cc2F)nc1-c1ccc(N2CCS(=O)(=O)CC2)cc1 [Example 44, (1R,2R)-N-(cyanomethyl)-2-(2-(2,4-difluorophenyl)-4-(4-(1,1-dioxidothiomorpholino)phenyl)oxazol-5-yl)cyclohexanecarboxamide] |
| 7.4 nM | 176 nM | CN(C(=O)OC(C)(C)C)c1ccc(-c2nc(-c3ccc(F)cc3)oc2[C@@H]2CCCC[C@H]2C(=O)NC2(C#N)CC2)cc1 [Example 48, tert-butyl (4-(5-((1R,2R)-2-((1-cyanocyclopropyl)carbamoyl)cyclohexyl)-2-(4-fluorophenyl)oxazol-4-yl)phenyl)(methyl)carbamate] |
| 4.01 nM | 1340 nM | CC(C)(C)OC(=O)Nc1ccc(-c2nc(-c3ccc(F)cc3)oc2[C@@H]2CCCC[C@H]2C(=O)NC2(C#N)CC2)cc1 [Example 49, tert-butyl (4-(5-((1R,2R)-2-((1-cyanocyclopropyl)carbamoyl)cyclohexyl)-2-(4-fluorophenyl)oxazol-4-yl)phenyl)carbamate] |
| 1.6 nM | 698 nM | N#CC1(NC(=O)[C@@H]2CCCC[C@H]2c2oc(Cc3ccccc3)nc2-c2ccc(N3CCS(=O)(=O)CC3)cc2)CC1 [Example 50, (1R,2R)-2-(2-benzyl-4-(4-(1,1-dioxidothiomorpholino)phenyl)oxazol-5-yl)-N-(1-cyanocyclopropyl) cyclohexanecarboxamide] |
| 1.69 nM | 400 nM | N#CC1(NC(=O)[C@@H]2CCCC[C@H]2c2oc(CC3CCCCC3)nc2-c2ccc(N3CCS(=O)(=O)CC3)cc2)CC1 [Example 51, (1R,2R)-N-(1-cyanocyclopropyl)-2-(2-(cyclohexylmethyl)-4-(4-(1,1-dioxidothiomorpholino)phenyl)oxazol-5-yl)cyclohcxanecarboxamide] |
